Patent publication EP4782434A1, “N-SULFONYL CARBOXAMIDE COMPOUND, AND PREPARATION METHOD THEREFOR AND USE THEREOF” (Nutshell Therapeutics (Shanghai) Co., Ltd., priority 2023, dated 2025)

Key:
DLD-1 BRCA2-/- cells = test: DLD-1 BRCA2-/- cell proliferation assay (CellTiter-Glo, 10 days incubation); assay type: cell-based; conditions: Homo sapiens, 240 h, DLD-1 BRCA2-/- cell line, total incubation period of 10 days, read-out: DLD1 BRCA2^-/- IC50
Excerpt: The anti-proliferative effect of the compounds on the human colorectal adenocarcinoma cell line DLD-1 BRCA2^-/- method.
• DLD-1 (purchased from ATCC, Cat. No.: CCL-221, Batch No.: 70033255); • RPMI1640 (purchased from Invitrogen, Cat. No.: 11875-085); • 0.25% Trypsin-EDTA (purchased from Invitrogen, Cat. No.: 25200-072); • Penicillin-Streptomycin solution (purchased from Hyclone, Cat. No.: SV30010); • FBS (purchased from BI, Cat. No.: 04-002-1A); • DMSO (purchased from Sigma, Cat. No.: D4540-1L); • 96-well plate (purchased from Corning, Cat. No.: CLS3903); • CellTiter-Glo reagent (purchased from Promega, Cat. No.: G7558).
The anti-proliferative effect of the compounds on a human colorectal adenocarcinoma cell line was evaluated using an ATP quantification method, wherein the measured activity correlates well with the number of viable cells. The genetically edited cell line DLD-1 BRCA2^-/- was cultured in RPMI 1640 medium (Invitrogen, 11875-085) supplemented with 10% (v/v) fetal bovine serum (BI, 04-002-1A). The cell line was cultured according to the standard instructions of the American Type Culture Collection (ATCC) and identified via short tandem repeat (STR) genotyping.
In the proliferation assay, cells were harvested and resuspended in cell culture medium. Cell density was determined using a cell counter. An appropriate volume of cell suspension was aspirated from the centrifuge tube to prepare a plating working solution (150 cells/100 µL for the DLD-1 BRCA2^-/- cell line). 100 µL of the cell suspension was seeded into each well of a 96-well plate (Corning, 3603) and incubated overnight in an incubator. The diluted test compound solutions were added to the wells. On the fourth and seventh days of compound incubation, the medium was replaced with fresh culture medium, and the compounds were re-administered, for a total incubation period of 10 days. Following incubation, the cell culture plates were removed and equilibrated to room temperature. 100 µL of CellTiter-Glo (Promega, G7558) was added to each well, and the plate was incubated at room temperature for 30 minutes. Data were read using a microplate reader (PerkinElmer, Enspire) in 96-well luminescence mode. Data analysis, curve fitting, and reporting were performed using the dose-response one-site 205 model of IDBS XL fit. Table 2: Proliferation inhibitory activity of compounds against DLD-1 BRCA2-/- cells

Polθ ATPase = target: T1, Polθ ATPase (Homo sapiens, UniProt O75417); test: Polθ ATPase activity assay (ADP-Glo Kinase Assay kit); assay type: biochemical; conditions: truncated POLQ-N protein (aa 1-894) 1 nM, 50 nM ssDNA, 50 µM ATP
T1 construct: purified truncated POLQ-N protein (aa 1-894, N-terminal 6-His tag); 6-His (N)
T1 sequence (O75417 1-894): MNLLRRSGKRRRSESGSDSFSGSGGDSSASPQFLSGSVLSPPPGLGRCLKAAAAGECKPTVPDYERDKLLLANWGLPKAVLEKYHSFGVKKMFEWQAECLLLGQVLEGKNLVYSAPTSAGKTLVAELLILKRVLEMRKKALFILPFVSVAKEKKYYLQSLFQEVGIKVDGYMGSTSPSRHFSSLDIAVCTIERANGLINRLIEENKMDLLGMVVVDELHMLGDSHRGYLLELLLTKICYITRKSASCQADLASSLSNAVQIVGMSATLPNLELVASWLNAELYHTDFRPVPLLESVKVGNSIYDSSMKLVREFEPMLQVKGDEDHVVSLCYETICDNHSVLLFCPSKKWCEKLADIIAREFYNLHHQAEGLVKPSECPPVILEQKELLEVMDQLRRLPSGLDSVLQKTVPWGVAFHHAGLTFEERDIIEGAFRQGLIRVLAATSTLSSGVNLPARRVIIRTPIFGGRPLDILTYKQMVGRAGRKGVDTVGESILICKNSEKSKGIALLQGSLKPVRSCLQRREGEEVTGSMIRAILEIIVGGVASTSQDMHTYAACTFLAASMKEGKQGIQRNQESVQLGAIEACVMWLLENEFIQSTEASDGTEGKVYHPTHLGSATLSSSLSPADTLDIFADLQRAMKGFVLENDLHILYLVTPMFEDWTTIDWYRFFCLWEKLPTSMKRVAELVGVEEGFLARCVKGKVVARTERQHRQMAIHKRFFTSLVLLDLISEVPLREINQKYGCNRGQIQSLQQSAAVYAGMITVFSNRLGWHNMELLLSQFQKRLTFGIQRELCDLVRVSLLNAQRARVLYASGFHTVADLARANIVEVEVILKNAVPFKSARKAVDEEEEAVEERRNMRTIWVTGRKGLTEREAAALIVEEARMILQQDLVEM
Procedure: The inhibitory efficiency of the compounds of formula (I) against Polθ ATPase activity was determined using the ADP-Glo Kinase Assay kit (Promega, V9101). […] The starting (final) concentration was 100 nM, followed by a 3-fold serial dilution for a total of 10 concentration points in duplicate (n=2). 5 μL of purified […], N-terminal 6-His tag) was added to each well. After centrifugation at 1000 rpm for 1 minute, the plate was incubated at 25°C for 10 minutes. 5 μL of substrate reaction solution (containing ATP & ssDNA) was added to each well, and the reaction was carried out at 25°C for 60 minutes. 5 μL of ADP-Glo Reagent was added to each well. After centrifugation at 1000 rpm for 1 minute, the plate was incubated at 25°C for 40 minutes. 10 μL of detection solution was added to each well. After centrifugation at 1000 rpm for 1 minute, the plate was incubated at 25°C for 40 minutes. Luminescence signals were recorded using a microplate reader (BMG, PHERAstar FSX). The final reaction system contained 1 nM of POLQ-N enzyme; 50 nM of ssDNA ([NT]); 50 μM of ATP; and 1% DMSO. The inhibition percentage (%) of the compound at each concentration was calculated using the RFU values normalized against the control wells within each assay plate. Table 1: Inhibitory activity of compounds against Polθ ATPase

[1] = test system: Theta-mediated end joining (TMEJ) process in HEK293T cells; test: TMEJ reporter assay (NanoGlo luciferase); assay type: cell-based; conditions: Homo sapiens, HEK-293T, HEK293T cells electroporated with TMEJ substrate, 24 hours
Procedure: The inhibitory effect of the compounds on the Theta-mediated end joining (TMEJ) process was evaluated.
(1) HEK293T cells were cultured in DMEM supplemented with 10% heat-inactivated fetal bovine serum (FBS) and 1% penicillin-streptomycin (PS). (2) Prior to startup, the Neon transfection system was disinfected, and E2 and R buffers were equilibrated to room temperature. (3) Culture medium without antibiotics was pre-warmed. (4) Cells in the flask reaching 80-90% confluency were trypsinized, neutralized with culture medium, centrifuged, and counted. (5) For transfection using a 100 µL electroporation tip, 2 × 10^6 cells were taken, washed once with DPBS (without Mg^2+ and Ca^2+), centrifuged at 1000 rpm for 5 min, and the supernatant was discarded. The number of cells and volume may be increased as required. (6) The Neon system was set up; a Neon tube was inserted into the Neon pipette and E2 buffer was added. (7) 10 µg of TMEJ substrate was added to 100 µL of R solution; the volume may be increased as required. (8) Cells were resuspended in DNA buffer, and electroporation was initiated according to the following parameters:
(9) The cells were loaded into antibiotic-free culture medium and mixed gently. (10) Steps (8)-(9) were repeated as necessary, and cells were seeded into 384-well plates at a density of 40,000 cells/well in 40 µL of culture medium. (11) The plates were incubated in a humidified CO2 incubator at 37°C for 24 hours. (12) NanoGlo reagent was warmed to room temperature, and NanoGlo buffer was mixed with the substrate at a ratio of 50:1. (13) The cell culture plates were equilibrated at room temperature for 10 minutes. (14) 40 µL of NanoGlo substrate buffer was added to each well, followed by shaking at 300 rpm for 3 minutes protected from light. (15) Signals were read via a BMG PHERAstar FSX.

| SMILES | IC50 (DLD-1 BRCA2-/- cells) [nM] | IC50 (Polθ ATPase; class symbols) [nM] | IC50 (Polθ ATPase; specific values) [nM] | IC50 [1] [nM] |
| --- | --- | --- | --- | --- |
| COc1cnc(C(F)F)cc1-c1cc(C)ccc1C(=O)NS(=O)(=O)Cc1ccc([C@@H](C)OC)cc1 [cpd-8, (R)-2-(2-(Difluoromethyl)-5-methoxypyridin-4-yl)-N-((4-(1-methoxyethyl)benzyl)sulfonyl)-4-methylbenzamide] | 57 | ≤ 2 | 0.72 | 2 |
| COc1ccc(C(F)F)cc1-c1cc(C)ccc1C(=O)NS(=O)(=O)Cc1ccc([C@H](C)OC)cc1 [cpd-3, (S)-5'-(difluoromethyl)-2'-methoxy-N-((4-(1-methoxyethyl)benzyl)sulfonyl)-5-methyl-[1,1'-biphenyl]-2-carboxamide] | 24 | ≤ 2 | 0.71 | – |
| COc1ccc(C(F)F)cc1-c1cc(CC(=O)N(C)C)ccc1C(=O)NS(=O)(=O)Cc1ccc(C(C)C)cc1 [cpd-11, 5'-(Difluoromethyl)-5-(2-(dimethylamino)-2-oxoethyl)-N-((4-isopropylbenzyl)sulfonyl)-2'-methoxy-[1,1'-biphenyl]-2-carboxamide] | 99 | ≤ 2 | 0.53 | 2 |
| COc1ccc(C(F)F)cc1-c1cc(C)ccc1C(=O)NS(=O)(=O)Cc1ccc([C@@H](C)OC)cc1 [cpd-7, (R)-5'-(Difluoromethyl)-2'-methoxy-N-((4-(1-methoxyethyl)benzyl)sulfonyl)-5-methyl-[1,1'-biphenyl]-2-carboxamide] | 59 | ≤ 2 | 0.71 | – |
| COc1cnc(C(F)F)cc1-c1cc(C)ncc1C(=O)NS(=O)(=O)Cc1ccc([C@@H](C)OC)cc1 [cpd-10, (R)-2'-(Difluoromethyl)-5'-methoxy-N-((4-(1-methoxyethyl)benzyl)sulfonyl)-6-methyl-[4,4'-bipyridine]-3-carboxamide] | 514 | ≤ 2 | 1.1 | – |
| COc1ccc(C(F)F)cc1-c1cc(CC(=O)N(C)C2CC2)ccc1C(=O)NS(=O)(=O)Cc1ccc(C(C)C)cc1 [cpd-12, 5-(2-(Cyclopropyl(methyl)amino)-2-oxoethyl)-5'-(difluoromethyl)-N-((4-isopropylbenzyl)sulfonyl)-2'-methoxy-[1,1'-biphenyl]-2-carboxamide] | 70 | ≤ 2 | 1 | – |
| COc1cnc(C(F)F)cc1-c1cc(C)ncc1C(=O)NS(=O)(=O)Cc1ccc([C@H](C)OC)cc1 [cpd-6, (S)-2'-(Difluoromethyl)-5'-methoxy-N-((4-(1-methoxyethyl)benzyl)sulfonyl)-6-methyl-[4,4'-bipyridine]-3-carboxamide] | 189 | ≤ 2 | 0.6 | – |
| COc1ccc(C(F)F)cc1-c1cc(C)ncc1C(=O)NS(=O)(=O)Cc1ccc([C@@H](C)OC)cc1 [cpd-9, (R)-4-(5-(Difluoromethyl)-2-methoxyphenyl)-N-((4-(1-methoxyethyl)benzyl)sulfonyl)-6-methylnicotinamide] | 63 | ≤ 2 | 0.52 | – |

Continued, in another order:

| IC50 (DLD-1 BRCA2-/- cells) [nM] | IC50 (Polθ ATPase; class symbols) [nM] | IC50 (Polθ ATPase; specific values) [nM] | SMILES | IC50 [1] [nM] |
| --- | --- | --- | --- | --- |
| 108 | ≤ 2 | 1.6 | COc1ccc(C(F)F)cc1-c1cc(C)ccc1C(=O)NS(=O)(=O)Cc1ccc(C(OC)C(F)(F)F)cc1 (centres unmarked) [cpd-14, 5'-(Difluoromethyl)-2'-methoxy-5-methyl-N-((4-(2,2,2-trifluoro-1-methoxyethyl)benzyl)sulfonyl)-[1,1'-biphenyl]-2-carboxamide] | – |
| 22 | – | – | [2H]C([2H])([2H])O[C@@H](C)c1ccc(CS(=O)(=O)NC(=O)c2ccc(C([2H])([2H])[2H])cc2-c2nc(C(F)F)c(F)cc2OC)cc1 [cpd-23, (S)-2-(6-(Difluoromethyl)-5-fluoro-3-methoxypyridin-2-yl)-N-((4-(1-(methoxy-d3)ethyl)benzyl)sulfonyl)-4-(methyl-d3)benzamide] | – |
| 33 | – | – | [2H]C([2H])([2H])O[C@@H](C)c1ccc(CS(=O)(=O)NC(=O)c2ccc(C([2H])([2H])[2H])cc2-c2cc(C(F)F)c(F)nc2OC)cc1 [cpd-24, (S)-2-(5-(Difluoromethyl)-6-fluoro-2-methoxypyridin-3-yl)-N-((4-(1-(methoxy-d3)ethyl)benzyl)sulfonyl)-4-(methyl-d3)benzamide] | – |
| 202 | ≤ 2 | 0.88 | COc1ccc(C(F)F)cc1-c1cc(Cc2nnc(C)o2)ccc1C(=O)NS(=O)(=O)Cc1ccc(C(C)C)cc1 [cpd-13, 5'-(Difluoromethyl)-N-((4-isopropylbenzyl)sulfonyl)-2'-methoxy-5-((5-methyl-1,3,4-oxadiazol-2-yl)methyl)-[1,1'-biphenyl]-2-carboxamide] | – |
| – | ≤ 2 | 1.4 | COc1ccc(C(F)F)cc1-c1cc(C)ccc1C(=O)NS(=O)(=O)Cc1ccc(C(C)OC)nc1 (centres unmarked) [cpd-20, 5'-(Difluoromethyl)-2'-methoxy-N-(((6-(1-methoxyethyl)pyridin-3-yl)methyl)sulfonyl)-5-methyl-[1,1'-biphenyl]-2-carboxamide] | – |
| 154 | – | – | COc1ccc(C(F)F)cc1-c1cc(C)ccc1C(=O)NS(=O)(=O)Cc1ccc(COC(F)F)cc1 [cpd-15, N-((4-((Difluoromethoxy)methyl)benzyl)sulfonyl)-5'-(difluoromethyl)-2'-methoxy-5-methyl-[1,1'-biphenyl]-2-carboxamide] | – |
| 17 | ≤ 2 | 1.4 | [2H]C([2H])([2H])Oc1cnc(C(F)F)cc1-c1cc(C([2H])([2H])[2H])ccc1C(=O)NS(=O)(=O)Cc1ccc([C@H](C)OC([2H])([2H])[2H])cc1 [cpd-18, (S)-2-(2-(Difluoromethyl)-5-(methoxy-d3)pyridin-4-yl)-N-((4-(1-(methoxy-d3)ethyl)benzyl)sulfonyl)-4-(methyl-d3)benzamide] | 1.3 |
